This assay addresses T1, recombinant PfSUB1 (rPfSUB1) (Plasmodium falciparum, UniProt Q8I0V0).
T1 construct: made in house
In words: PfSUB1 enzyme assay (recombinant PfSUB1, fluorogenic peptide substrate). It counts as biochemical. Conditions: for IC50: rPfSUB1, substrate SERA4st1F-6R12 0.1 μM, 5 min preincubation, pH 8.2, fluorescence, duplicate, read-out: IC50, nM PfSUB1 inhibition; for inhibition of rPfSUB1 activity at 1 μM: 1 μM final concentration, typical of duplicate assays. The method, then:
The proteolytic activity of rPfSUB1 was monitored by the cleavage of the fluorogenic peptidic substrate SERA4st1F-6R12 (Ac-[…]-OH) and has been described previously.[28] Briefly, chymotrypsin treated rPfSUB1 (expressed and purified as described before […] was stored at −80 °C as a 228 U/mL stock in 20 mM Tris−HCl pH 8.2, 150 mM NaCl, 10% glycerol, and diluted for use (1:500) in reaction buffer (20 mM Tris−HCl pH 8.2, 150 mM NaCl, 12 mM CaCl2, 25 mM CHAPS). Peptidic boronic acid inhibitors were dissolved in 100% DMSO at 20 mM, then further diluted in DMSO to generate stock solutions ranging from 500 to 0.01 μM and then used diluted 1:100 in the enzyme reactions. All reactions were performed in wells of white 96-well microwell plates (Nunc); 50 μL diluted rPfSUB1 was preincubated for 5 min with 1 μL each of the serially diluted boronic acid inhibitors, followed by addition of 50 μL substrate solution (0.1 μM final). Subsequent fluorescence increase was continuously monitored using a SpectraMax M5e plate reader and SoftMax Pro-6.3 software, with readings taken every 3 min for 60 min using excitation and emission values of 552 and 580 nm, respectively. […] All experiments were performed in duplicate.

T1 sequence (Q8I0V0 218-688): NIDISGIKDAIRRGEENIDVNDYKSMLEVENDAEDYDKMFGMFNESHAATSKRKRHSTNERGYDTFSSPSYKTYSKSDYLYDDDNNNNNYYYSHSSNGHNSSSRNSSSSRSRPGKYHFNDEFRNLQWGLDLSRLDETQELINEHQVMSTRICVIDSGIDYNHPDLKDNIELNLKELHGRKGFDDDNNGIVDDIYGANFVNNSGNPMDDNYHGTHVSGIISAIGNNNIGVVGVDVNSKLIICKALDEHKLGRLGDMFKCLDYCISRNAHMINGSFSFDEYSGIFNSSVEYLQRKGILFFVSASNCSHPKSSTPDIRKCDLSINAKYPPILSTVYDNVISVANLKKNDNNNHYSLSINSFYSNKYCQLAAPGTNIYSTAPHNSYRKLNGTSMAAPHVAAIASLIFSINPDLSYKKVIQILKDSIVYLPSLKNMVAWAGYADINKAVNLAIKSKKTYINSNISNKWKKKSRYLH

As for `CC(=O)N[C@H](C(=O)N[C@@H](CC(C)C)C(=O)NCC(=O)N[C@@H](C)B(O)O)C1CCCC1` [2g, ((2R,8S,11S)-11-cyclopentyl-8-isobutyl-4,7,10,13-tetraoxo-3,6,9,12-tetraazatetra-decan-2-yl)boronic acid], the IC50 (as a rule, the concentration needed to halve the response being measured) amounted to 7.8 ± 0.1 nM.
Same read-out and setting: next, `CC(=O)N[C@H](C(=O)N[C@H](C(=O)NCC(=O)N[C@@H](C)B(O)O)C(C)(C)C)C1CCCC1` [2a, ((2R,8S,11S)-8-(tert-butyl)-11-cyclopentyl-4,7,10,13-tetraoxo-3,6,9,12-tetraazatetradecan-2-yl)boronic acid]: 2.1 ± 0.1 nM; `CC[C@H](C)[C@H](NC(=O)[C@@H](NC(C)=O)C1CCCC1)C(=O)NCC(=O)N[C@@H](C)B(O)O` [2f, ((2R,8S,11S)-8-((S)-sec-butyl)-11-cyclopentyl-4,7,10,13-tetraoxo-3,6,9,12-tetraaza-tetradecan-2-yl)boronic acid]: 5.4 ± 0.1 nM.
Take `CC(=O)N[C@H](C(=O)N[C@@H](Cc1ccccc1)C(=O)NCC(=O)N[C@@H](C)B(O)O)C1CCCC1` [2h, ((2R,8S,11S)-8-benzyl-11-cyclopentyl-4,7,10,13-tetraoxo-3,6,9,12-tetraazatetradecan-2-yl)boronic acid]: the IC50 was 6.9 ± 2.6 nM.
In the case of `CC(C)C[C@H](NC(=O)[C@H](CCc1ccccc1)NC(=O)CN1CCOCC1)C(=O)N[C@@H](Cc1ccccc1)C(=O)N[C@@H](CC(C)C)C(=O)[C@@]1(C)CO1` [carfilzomib, reference compound], the “inhibition of rPfSUB1 activity at 1 μM” value is given as “lack of inhibition”.
Consider `CC[C@H](C)[C@H](NC(=O)[C@@H](NC(=O)c1cc(C)cc(C)c1)C1CCCC1)C(=O)NCC(=O)N[C@@H](C)B(O)O` [3c, ((3S,6S,12R)-6-((S)-sec-butyl)-3-cyclopentyl-1-(3,5-dimethylphenyl)-1,4,7,10-tetra-oxo-2,5,8,11-tetraazatridecan-12-yl)boronic acid], for which the 50% inhibitory concentration (IC50) stood at 6.9 ± 0.3 nM.
As for `CC(C)C[C@H](NC(=O)CNC(=O)c1cc(Cl)ccc1Cl)B(O)O` [ixazomib, reference compound], the “inhibition of rPfSUB1 activity at 1 μM” value was “lack of inhibition”.
Regarding `CC[C@H](C)[C@H](NC(=O)[C@@H](NC(=O)C1CCC1)C1CCCC1)C(=O)NCC(=O)N[C@@H](C)B(O)O` [3g, ((3S,6S,12R)-6-((S)-sec-butyl)-1-cyclobutyl-3-cyclopentyl-1,4,7,10-tetraoxo-2,5,8,11-tetraazatridecan-12-yl)boronic acid], the 50% inhibitory concentration (IC50) turned out to be 2 ± 0.1 nM.
Regarding `CC(=O)N[C@H](C(=O)N[C@H](C(=O)NCC(=O)N[C@@H](C)B(O)O)c1ccccc1)C1CCCC1` [2b, ((2R,8S,11S)-11-cyclopentyl-4,7,10,13-tetraoxo-8-phenyl-3,6,9,12-tetraazatetradecan-2-yl)boronic acid], the IC50 is 2.8 ± 0.1 nM.
Take `CC[C@H](C)[C@H](NC(=O)[C@@H](NC(=O)C(C)(C)C)C1CCCC1)C(=O)NCC(=O)N[C@@H](C)B(O)O` [3f, ((2R,8S,11S)-8-((S)-sec-butyl)-11-cyclopentyl-14,14-dimethyl-4,7,10,13-tetraoxo-3,6,9,12-tetraazapentadecan-2-yl)boronic acid]: the IC50 is 3.9 ± 0.3 nM.
For “((3S,6S,12R)-6-((S)-sec-butyl)-3-cyclopentyl-1-(3,5-dimethylphenyl)-1,4,7,10-tetra-oxo-2,5,8,11-tetraazatridecan-12-yl)boronic acid [3d]”, the IC50 came out at 3.2 ± 0.1 nM.
Take `CC[C@H](C)[C@H](NC(=O)[C@@H](NC(=O)C(C)C)C1CCCC1)C(=O)NCC(=O)N[C@@H](C)B(O)O` [3e, ((2R,8S,11S)-8-((S)-sec-butyl)-11-cyclopentyl-14-methyl-4,7,10,13-tetraoxo-3,6,9,12-tetraazapentadecan-2-yl)boronic acid]: the concentration for half-maximal inhibition (IC50) came to 3.9 ± 0.3 nM.
For the compound `CC[C@H](C)[C@H](NC(=O)[C@@H](NS(=O)(=O)c1nccs1)C1CCCC1)C(=O)NCC(=O)N[C@@H](C)B(O)O` [3h, ((R)-1-(2-((2S,3S)-2-((S)-2-cyclopentyl-2-(thiazole-2-sulfonamido)acetamido)-3-methylpentanamido)acetamido)ethyl)boronic acid], the IC50 worked out at 3.4 ± 0.3 nM.
